Experimental data reported in patent US20060014740A1 (priority 2003, published 2006).
Like-named read-outs stand apart in the source and are kept apart here.

Tests used:
Type in all cases: cell-based
[1] = test system: TSU-Pr1 human prostate cancer cells; experiment: SRB cytotoxicity assay, TSU-Pr1; settings: 96 h
How it was run: (§1)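 Cells seeded at 1000–5000 per well according to growth rate were treated with compound at 0 to 100 μM for 96 h, in three to five replicates. Surviving cell number was then determined by sulforhodamine B staining after trichloroacetic acid fixation, with absorbance read at 540 nm.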

[2] = test system: LNCaP human prostate cancer cells; experiment: SRB cytotoxicity assay, LNCaP; settings: 96 h; for IC50: read-out: IC50 LNCaP
How it was run: as §1

[3] = test system: human breast cancer cell line (MCF-7); experiment: SRB cytotoxicity assay, MCF-7; settings: Homo sapiens, MCF7; Table 8; breast cancer cell line; read-out: IC50 MCF-7
How it was run: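 Cells plated at 1000–5000 per well by growth rate and exposed to compound (0 to 100 μM) for 96 h, three to five replicates. Cell number read by sulforhodamine B: TCA fixation, 0.4% SRB staining, absorbance at 540 nm.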

[4] = test system: PPC-1 human prostate cancer cells; experiment: SRB cytotoxicity assay, PPC-1
How it was run: as §1

[5] = test system: RH7777 rat hepatoma cells; experiment: SRB cytotoxicity assay, RH7777 control cell line; settings: 96 h, read-out: IC50 RH7777
How it was run: as §1

[6] = test system: PC-3 human prostate cancer cells; experiment: SRB cytotoxicity assay, PC-3; settings: 96 h, read-out: IC50 PC-3
How it was run: as §1

[7] = test system: DU-145 human prostate cancer cells; experiment: SRB cytotoxicity assay, DU-145; settings: 96 h
How it was run: as §1

[8] = test system: five human prostate cancer cell lines (DU-145, PC-3, LNCaP, PPC-1, TSU-Pr1); experiment: SRB cytotoxicity assay, statements over several cell lines
Experimental: (§2) For in vitro cytotoxicity screening, 1000 to 5000 cells were plated into each well of 96-well plates depending on growth rate, and exposed to different concentrations of a test compound for 96 h in three to five replicates. All the compounds were dissolved in dimethyl sulfoxide at 5 to 20 mM, and diluted to desired concentrations in complete culture medium. Cell numbers at the end of the drug treatment were measured by the SRB assay (Gududuru et al., “Synthesis and Biological Evaluation of Novel Cytotoxic Phospholipids for Prostate Cancer,” Bioorg. Med. Chem. Lett. 14:4919-4923 (2004); Rubinstein et at., “Comparison of in vitro Anticancer-Drug-Screening Data Generated with a Tetrazolium Assay Versus a Protein Assay Against a Diverse Panel of Human Tumor Cell Lines,” J. Naatl, Cancer Inst. 82:1113-1118 (1990), each of which is hereby incorporated by reference in its entirety). Briefly, the cells were fixed with 10% of trichloroacetic acid, stained with 0.4% SRB, and the absorbances at 540 nm was measured using a plate reader (DYNEX Technologies, Chantilly, Va.).
The antiproliferative activity of all the synthesized compounds was evaluated against five human prostate cancer cell lines and in RH7777 cells (negative control) using the sulforhodamine B (SRB) assay (see description in Example 5 above). […]

[9] = test system: CHO cells (CHO-1, CHO-K1); experiment: SRB cytotoxicity assay, CHO; settings: Table 9; negative control cell line; 96 h
Experimental: as §2
(§3) In vitro cytotoxicity assay was performed by the same sulforhodamine B (SRB) assay (described above). The compounds shown in Table 8 below where tested for activity against the breast cancer and ovarian cancer cell lines.
(§4) Cells were exposed to a wide range of concentrations (0 to 100 μM) of the particular compound for 96 h in 96 well plates. Cells were fixed with 10% trichloroacetic acid, washed five times with water. The plates were air dried overnight and fixed cells were stained with SRB solution. The cellular protein-bound SRB was measured at 540 nm using a plate reader. Cell numbers at the end of the treatment were measured.
as §4, with “96-well” for “96 well”, “calculated as a percentage of untreated control.” for “measured.”

[10] = test system: SKOv-3 human ovarian cancer cell line; experiment: SRB cytotoxicity assay, SKOv-3; settings: Homo sapiens, SK-OV-3; Table 8
Experimental: as §2, §3

[11] = test system: OVCAR-3 human ovarian cancer cell line; experiment: SRB cytotoxicity assay, OVCAR-3; settings: Homo sapiens, OVCAR-3; Table 8
Experimental: as §2, §3

[12] = test system: CaOv-3 human ovarian cancer cell line; experiment: SRB cytotoxicity assay, CaOv-3; settings: Homo sapiens, Caov-3; Table 8
Experimental: as §2, §3

[13] = Homo sapiens, TSU-Pr1, Table 4, read-out: IC50 TSU-Pr1
[14] = Homo sapiens, PPC-1, Table 4, 96 h, read-out: IC50 PPC-1
[15] = Rattus norvegicus, RH7777, Table 4, control cell line
[16] = Homo sapiens, DU-145, read-out: IC50 DU-145, Table 4
[17] = Table 9, 96 h, read-out: IC50 PPC-1
[18] = Table 9, negative control cell line

SMILES	IC50 [1, 13] [µM]	IC50 ([2]; Homo sapiens, LNCaP, Table 4) [µM]	IC50 [4, 14] [µM]	IC50 [5, 15] [µM]	IC50 ([6]; Homo sapiens, Table 4) [µM]	IC50 [7, 16] [µM]	IC50 LNCaP ([2]; Table 9)	IC50 [4, 17] [µM]	IC50 [5, 18] [µM]	IC50 [9] [µM]	IC50 ([1]; Table 9, read-out: IC50 TSU) [µM]	IC50 ([6]; Table 9) [µM]	IC50 ([7]; read-out: IC50 DU-145, Table 9) [µM]	IC50 ([2]; Table 9) [µM]	further results
CCCCCCCCCCCCCCCCCCNC(=O)c1csc(-c2ccccc2)n1 [Compound 34, 2-phenylthiazole-4-carboxylic acid octadecylamide]	> 20	> 20	> 20	> 20	> 20	> 20	–	–	–	–	–	–	–	–	IC50 [3]: > 20 µM; IC50 ([8]; both prostate and RH7777 cells, read-out: No activity below (concentration)): > 20 µM
CCCCCCCCC=CCCCCCCCC(=O)NCCO [compound 319]	–	–	–	–	–	–	Not Active	> 20	> 20	> 20	–	–	–	–	IC50 TSU ([1]; Table 9): Not; Activity against DU-145, PC-3, and LNCaP prostate cancer cell lines [8]: did not show any activity
CCCCCCCCC=CCCCCCCCC(=O)NCCOP(=O)(O)O [compound 320]	–	–	–	–	–	–	Not Active	–	> 50	> 50	> 50	> 50	> 50	–	–
CCCCCCCCCCCCCCCCCCNC(=O)[C@@H]1CSC(c2ccc(NC(C)=O)cc2)N1.Cl (mixture of isomers) [Compound 18-HCI, (2RS, 4R)-2-(4-Acetylamino-phenyl)-thiazolidine-4-carboxylic acid octadecylamide Hydrochloride]	0.94	1.3	0.55	21.1	5.6	3.1	–	–	–	–	–	–	–	–	Selectivity in PPC-1 cells compared to RH7777 cells [4]: 38 fold; IC50 ([4]; Homo sapiens, PPC-1, read-out: IC50 in PPC-1 cells): 0.55 µM; IC50 [10]: 2.6 µM; IC50 [11]: 2 µM; IC50 [12]: 4.9 µM
CCCCCCCCCCCCCCCCCCNC[C@@H](N)CO [compound 317]	–	–	–	–	–	–	–	1.9	2.9	2.2	2.2	2.6	4.1	5.1	–
CCCCCCCCC=CCCCCCCCCNC(=O)C(N)CO (stereo not drawn) [compound 309]	–	–	–	–	–	–	–	5.1	6.8	5.2	5.5	5.9	6.9	6.6	–
